Legend:
[1] = molecular target: T1, DDR1 (Homo sapiens, UniProt Q08345); assay: LanthaScreen Europium Kinase Binding assay, DDR1; details: 5 nM DDR1, 20 nM Kinase Tracer 178, 1 h at rt; Ki from IC50 by Cheng-Prusoff; read-out: Ki DDR1
T1 construct: purchased Carna Biosciences
Description: (§1) DDR1 and DDR2 binding assays were performed using Life Technologies LanthaScreen™ Europium Kinase Binding assay. […] IC50 values were determined in GraphPad Prism 7.0 software, using 4 parameter model: log (inhibitor) vs. response. IC50 values were converted in Ki using the Cheng-Prusoff equation (Ki-IC50/(1+ [Tracer]/Kd).

[2] = molecular target: T2, DDR2 (Homo sapiens, UniProt Q16832); assay: LanthaScreen Europium Kinase Binding assay, DDR2; details: 5 nM DDR2, 10 nM Kinase Tracer 178, 1 h at rt; Ki from IC50 by Cheng-Prusoff; read-out: Ki DDR2
T2 construct: purchased Life Technologies
T2 sequence (Q16832 22-855): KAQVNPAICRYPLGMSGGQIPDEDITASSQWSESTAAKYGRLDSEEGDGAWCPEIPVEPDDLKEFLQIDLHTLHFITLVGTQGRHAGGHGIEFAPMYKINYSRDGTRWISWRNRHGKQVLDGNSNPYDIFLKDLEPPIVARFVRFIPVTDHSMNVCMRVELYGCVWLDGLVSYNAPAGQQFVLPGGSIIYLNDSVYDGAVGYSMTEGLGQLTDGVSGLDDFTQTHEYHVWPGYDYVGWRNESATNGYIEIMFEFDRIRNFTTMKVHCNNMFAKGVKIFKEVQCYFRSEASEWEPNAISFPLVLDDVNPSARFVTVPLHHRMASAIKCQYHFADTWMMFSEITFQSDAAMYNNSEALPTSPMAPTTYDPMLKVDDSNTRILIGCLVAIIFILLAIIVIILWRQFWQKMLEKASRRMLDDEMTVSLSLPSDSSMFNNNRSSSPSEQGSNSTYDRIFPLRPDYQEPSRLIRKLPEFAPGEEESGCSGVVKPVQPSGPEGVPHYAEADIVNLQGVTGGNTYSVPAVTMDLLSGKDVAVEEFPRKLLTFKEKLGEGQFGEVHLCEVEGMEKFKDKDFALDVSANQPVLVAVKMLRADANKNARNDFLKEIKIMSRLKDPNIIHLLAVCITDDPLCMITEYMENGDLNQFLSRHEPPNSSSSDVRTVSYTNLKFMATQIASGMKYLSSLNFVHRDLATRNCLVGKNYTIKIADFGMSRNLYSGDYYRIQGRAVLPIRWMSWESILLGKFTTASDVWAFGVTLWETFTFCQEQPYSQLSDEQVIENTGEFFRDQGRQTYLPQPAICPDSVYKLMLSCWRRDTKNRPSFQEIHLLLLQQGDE
Description: as §1

T1 sequence (Q08345 19-913): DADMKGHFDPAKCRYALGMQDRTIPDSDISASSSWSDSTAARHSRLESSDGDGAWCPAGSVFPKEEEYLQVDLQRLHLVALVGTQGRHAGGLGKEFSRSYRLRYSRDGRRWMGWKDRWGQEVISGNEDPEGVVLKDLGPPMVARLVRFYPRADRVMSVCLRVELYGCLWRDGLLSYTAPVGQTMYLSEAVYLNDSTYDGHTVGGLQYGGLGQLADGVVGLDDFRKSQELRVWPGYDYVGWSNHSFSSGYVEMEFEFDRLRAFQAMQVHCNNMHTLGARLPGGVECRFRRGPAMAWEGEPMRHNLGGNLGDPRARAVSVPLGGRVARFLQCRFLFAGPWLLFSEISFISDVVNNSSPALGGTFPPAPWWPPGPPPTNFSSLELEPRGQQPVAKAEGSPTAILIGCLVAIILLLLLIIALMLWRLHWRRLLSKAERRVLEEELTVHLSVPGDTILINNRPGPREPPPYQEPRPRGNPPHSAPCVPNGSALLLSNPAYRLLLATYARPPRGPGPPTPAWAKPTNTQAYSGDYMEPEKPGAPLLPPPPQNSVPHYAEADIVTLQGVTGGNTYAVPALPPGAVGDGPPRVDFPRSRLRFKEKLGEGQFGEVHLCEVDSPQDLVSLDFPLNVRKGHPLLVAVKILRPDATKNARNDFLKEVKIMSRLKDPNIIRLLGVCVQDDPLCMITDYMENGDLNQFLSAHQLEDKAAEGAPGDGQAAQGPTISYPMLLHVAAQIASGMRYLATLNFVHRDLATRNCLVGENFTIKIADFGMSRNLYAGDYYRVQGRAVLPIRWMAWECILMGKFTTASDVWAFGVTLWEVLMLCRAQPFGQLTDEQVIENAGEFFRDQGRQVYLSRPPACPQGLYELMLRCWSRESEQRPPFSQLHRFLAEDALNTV

Ki [1] [nM]	Ki [2] [nM]	Compound
< 5	5 to 25	CN(C(=O)Nc1cc(C(F)(F)F)ccn1)C1CC2(C1)CN(C(=O)c1cnn3ccn(C)c13)C2 [Example 129, 1-methyl-1-(2-(1-methyl-1H-imidazo[1,2-b]pyrazole-7-carbonyl)-2-azaspiro[3.3]heptan-6-yl)-3-(4-(trifluoromethyl)pyridin-2-yl)urea]
< 5	5 to 25	CN(C(=O)Nc1cncc(C(F)(F)F)c1)C1CC2(C1)CN(C(=O)c1ncnc3ccsc13)C2 [Example 130, 1-methyl-1-(2-(thieno[3,2-d]pyrimidine-4-carbonyl)-2-azaspiro[3.3]heptan-6-yl)-3-(5-(trifluoromethyl)pyridin-3-yl)urea]
< 5	5 to 25	CN(C(=O)Nc1ccc(F)c(C(F)(F)F)c1)C1CC2(C1)CN(C(=O)c1cnn3ccn(C)c13)C2 [Example 131, 3-(4-fluoro-3-(trifluoromethyl)phenyl)-1-methyl-1-(2-(1-methyl-1H-imidazo[1,2-b]pyrazole-7-carbonyl)-2-azaspiro[3.3]heptan-6-yl)urea]
< 5	5 to 25	CN(C(=O)Nc1cc(OC(F)(F)F)ccc1F)C1CC2(C1)CN(C(=O)c1cnn3ccn(C)c13)C2 [Example 132, 3-(2-fluoro-5-(trifluoromethoxy)phenyl)-1-methyl-1-(2-(1-methyl-1H-imidazo[1,2-b]pyrazole-7-carbonyl)-2-azaspiro[3.3]heptan-6-yl)urea]
< 5	5 to 25	CN(C(=O)Nc1cccc(C(F)(F)F)c1)C1CC2(C1)CN(C(=O)c1cnn3ccsc13)C2 [Example 133, 1-methyl-1-(2-(pyrazolo[5,1-b]thiazole-7-carbonyl)-2-azaspiro[3.3]heptan-6-yl)-3-(3-(trifluoromethyl)phenyl)urea]
< 5	5 to 25	CN(C(=O)Nc1cccc(C(F)(F)F)c1)C1CC2(C1)CN(C(=O)c1cnn3ccn(C)c13)C2 [Example 134, 1-methyl-1-(2-(1-methyl-1H-imidazo[1,2-b]pyrazole-7-carbonyl)-2-azaspiro[3.3]heptan-6-yl)-3-(3-(trifluoromethyl)phenyl)urea]
< 5	5 to 25	O=C(Nc1cccc(C(F)(F)F)c1)NC1CC2(C1)CN(C(=O)c1cnn3c1SCC3)C2 [Example 135, 1-(2-(2,3-dihydropyrazolo[5,1-b]thiazole-7-carbonyl)-2-azaspiro[3.3]heptan-6-yl)-3-(3-(trifluoromethyl)phenyl)urea]
< 5	5 to 25	O=C(Nc1cccc(C(F)(F)F)c1)NC1CC2(C1)CN(C(=O)c1cnn3c1SCCC3)C2 [Example 136, 1-(2-(6,7-dihydro-5H-pyrazolo[5,1-b][1,3]thiazine-3-carbonyl)-2-azaspiro[3.3]heptan-6-yl)-3-(3-(trifluoromethyl)phenyl)urea]
< 5	< 5	O=C(Nc1cccc(C(F)(F)F)c1)NC1CC2(C1)CN(C(=O)c1ccnc3ccsc13)C2 [Example 137, 1-(2-(thieno[3,2-b]pyridine-7-carbonyl)-2-azaspiro[3.3]heptan-6-yl)-3-(3-(trifluoromethyl)phenyl)urea]
< 5	< 5	O=C(Nc1cccc(C(F)(F)F)c1)NC1CC2(C1)CN(c1cnc3[nH]ncc3c1)C2 [Example 138, 1-(2-(1H-pyrazolo[3,4-b]pyridine-5-yl)-2-azaspiro[3.3]heptan-6-yl)-3-(3-(trifluoromethyl)phenyl)urea]
< 5	< 5	COc1ccc(OC(F)(F)F)cc1NC(=O)CC1CC2(C1)CN(C(=O)c1ccnc3ccsc13)C2 [Example 139, N-(2-methoxy-5-(trifluoromethoxy)phenyl)-2-(2-(thieno[3,2-b]pyridine-7-carbonyl)-2-azaspiro[3.3]heptan-6-yl)acetamide]
< 5	< 5	O=C(CC1CC2(C1)CN(C(=O)c1ccnc3ccsc13)C2)Nc1cccc(C(F)(F)F)c1 [Example 140, 2-(2-(thieno[3,2-b]pyridine-7-carbonyl)-2-azaspiro[3.3]heptan-6-yl)-N-(3-(trifluoromethyl)phenyl)acetamide]
< 5	< 5	Cn1ccn2ncc(C(=O)N3CC4(CC(CC(=O)Nc5cccc(C(F)(F)F)c5)C4)C3)c12 [Example 141, 2-(2-(1-methyl-1H-imidazo[1,2-b]pyrazole-7-carbonyl)-2-azaspiro[3.3]heptan-6-yl)-N-(3-(trifluoromethyl)phenyl)acetamide]
< 5	< 5	COc1ccc(OC(F)(F)F)cc1NC(=O)CC1CC2(C1)CN(C(=O)c1cnn3ccn(C)c13)C2 [Example 142, N-(2-methoxy-5-(trifluoromethoxy)phenyl)-2-(2-(1-methyl-1H-imidazo[1,2-b]pyrazole-7-carbonyl)-2-azaspiro[3.3]heptan-6-yl)acetamide]
< 5	< 5	Cn1ccn2ncc(C(=O)N3CC4(CC(OC(=O)Nc5cccc(C(F)(F)F)c5)C4)C3)c12 [Example 143, 2-(1-methyl-1H-imidazo[1,2-b]pyrazole-7-carbonyl)-2-azaspiro[3.3]heptan-6-yl(3-(trifluoromethyl)phenyl)carbamate]
< 5	5 to 25	COc1ccc(OC(F)(F)F)cc1NC(=O)OC1CC2(C1)CN(C(=O)c1cnn3ccn(C)c13)C2 [Example 144, 2-(1-methyl-1H-imidazo[1,2-b]pyrazole-7-carbonyl)-2-azaspiro[3.3]heptan-6-yl(2-methoxy-5-(trifluoromethoxy)phenyl)carba-mate]
< 5	5 to 25	O=C(Nc1cc(C(F)(F)F)ccn1)NC1CC2(C1)CN(C(=O)c1ccnc3[nH]ncc13)C2 [Example 145, 1-(2-(1H-pyrazolo[3,4-b]pyridine-4-carbonyl)-2-azaspiro[3.3]heptan-6-yl)-3-(4-(trifluoromethyl)pyridin-2-yl)urea]
< 5	5 to 25	Cn1ccn2ncc(C(=O)N3CC4(CC(OC(=O)Nc5cncc(C(F)(F)F)c5)C4)C3)c12 [Example 146, 2-(1-methyl-1H-imidazo[1,2-b]pyrazole-7-carbonyl)-2-azaspiro[3.3]heptan-6-yl(5-(trifluoromethyl)pyridin-3-yl)carbamate]
< 5	< 5	O=C(Nc1cccc(C(F)(F)F)c1)OC1CC2(C1)CN(C(=O)c1cnn3ccsc13)C2 [Example 147, 2-(pyrazolo[5,1-b]thiazole-7-carbonyl)-2-azaspiro[3.3]heptan-6-yl(3-(trifluoromethyl)phenyl)carbamate]
< 5	< 5	O=C(Nc1cccc(C(F)(F)F)c1)NC1CC2(C1)CN(c1nccn3cncc13)C2 [Example 149, 1-(2-(imidazo[1,5-a]pyrazin-8-yl)-2-azaspiro[3.3]heptan-6-yl)-3-(3-(trifluoromethyl)phenyl)urea]
< 5	5 to 25	CN(C(=O)Nc1cc(CC(F)(F)F)ccn1)C1CC2(C1)CN(C(=O)c1cnn3ccn(C)c13)C2 [Example 150, 1-methyl-1-(2-(1-methyl-1H-imidazo[1,2-b]pyrazole-7-carbonyl)-2-azaspiro[3.3]heptan-6-yl)-3-(4-(2,2,2-trifluoroethyl)pyridin-2-yl)urea]
< 5	5 to 25	Cc1ccc(OC(F)(F)F)cc1NC(=O)N(C)C1CC2(C1)CN(C(=O)c1cnn3ccsc13)C2 [Example 151, 1-methyl-3-(2-methyl-5-(trifluoromethoxy)phenyl)-1-(2-(pyrazolo[5,1-b]thiazole-7-carbonyl)-2-azaspiro[3.3]heptan-6-yl)urea]
< 5	5 to 25	COc1ccc(CC(F)(F)F)cc1NC(=O)NC1CC2(C1)CN(C(=O)c1cnn3ccn(C)c13)C2 [Example 152, 1-(2-methoxy-5-(2,2,2-trifluoroethyl)phenyl)-3-(2-(1-methyl-1H-imidazo[1,2-b]pyrazole-7-carbonyl)-2-azaspiro[3.3]heptan-6-yl)urea]
< 5	< 5	O=C(Nc1cccc(CC(F)(F)F)c1)NC1CC2(C1)CN(C(=O)c1ccnc3[nH]ncc13)C2 [Example 153, 1-(2-(1H-pyrazolo[3,4-b]pyridine-4-carbonyl)-2-azaspiro[3.3]heptan-6-yl)-3-(3-(2,2,2-trifluoroethyl)phenyl)urea]
< 5	5 to 25	O=C(Nc1cc(OC(F)(F)F)ccn1)NC1CC2(C1)CN(C(=O)c1ccnc3[nH]ncc13)C2 [Example 154, 1-(2-(1H-pyrazolo[3,4-b]pyridine-4-carbonyl)-2-azaspiro[3.3]heptan-6-yl)-3-(4-(trifluoromethoxy)pyridin-2-yl)urea]

From patent US20260285855A1, “HETEROARYL DERIVATIVES AS DDRS INHIBITORS” (CHIESI FARMACEUTICI S.P.A., priority 2023, published 2026)
